Test results reported in PMC12467382, “Synthesis and Bioevaluation of Chalcones as Broad-Spectrum Antiviral Compounds Against Single-Stranded RNA Viruses” (Biomolecules, 2025).
Values joined by “and” are separate entries in the source; they are usually repeats but may differ in a detail not shown here. Equal entries are not always repeated.

What was measured:
[1] = tested on: PIV5-GFP; test: PIV5-GFP viral GFP expression in Hs27 cells by flow cytometry; type: cell-based, parainfluenza virus 5; settings: for Inhibition of GFP expression, pre-infection treatment only: 10 µM for 24 h before infection, media lacking chalcone after; for Ability to reduce viral GFP expression (Figure 4B screen): 10 µM chalcone before and after infection; for GFP-positive cells, chalcone added at 0 or 6 hpi: 10 µM added at 0 (or 6) hpi, DMSO ~80%; for Effect on number of GFP-positive cells, chalcone added at 18 hpi: 10 µM added at 18 hpi; for GFP-positive cells: 10 µM chalcone 24 h before infection and after, DMSO control ~80-82% GFP+; for % GFP relative to DMSO treated (10 µM): Hs27 cells infected with PIV5-GFP; for GFP-positive cells, virus spread, chalcone added at 0 and 24 hpi: 10 µM added at 0 and 24 hpi, DMSO nearly 60%; for Inhibition of virus spread, chalcone added at 48 and 72 hpi: 10 µM added at 48 and 72 hpi
Protocol: Parainfluenza virus 5 (PIV5) expressing green fluorescence protein (GFP) was derived from cDNA, grown at 37 °C in Madin–Darby bovine kidney (MDBK) cells and titered on CV-1 (African green monkey kidney) cells with a fibroblast morphology as previously described. MDBK and CV-1 cells were the kind gift of Dr. Robert Lamb (Northwestern University). Cells were infected with virus diluted in DMEM supplemented with 10% bovine serum albumin (BSA) for 1 h or mock infected with media alone. Following incubation, cells were washed with phosphate-buffered saline (PBS) and cultured in DMEM supplemented with 2% heat-inactivated (HI) FBS.
(§1) Chalcone treatments were performed in DMEM supplemented with 10% HI FBS at the indicated concentrations and for indicated periods of time. Chalcone stocks were reconstituted in 100% dimethyl sulfoxide (DMSO) at a concentration of 10 mM and were serially diluted to working concentrations in DMSO. DMSO control treatments to test the effect of the vehicle were performed at volumes corresponding to the volume of chalcone added during each experiment (i.e., 1 µL chalcone DMSO solution/1 mL DMEM [10 µM] utilized alongside the DMSO control of 1 µL/1 mL DMEM). For cytotoxicity assays, untreated controls were subtracted from DMSO and chalcone sample values to account for the background signal.
(§2) For cytotoxicity assays, cells were stained with propidium iodide (PI) at a dilution of 1:100. Cell viability was determined via flow cytometry using the CytoFLEX (Beckman Coulter, Brea, CA, USA). CytExpert software (Beckman Coulter, version 2.4) was used to analyze independent events. PIV5 infection was monitored using flow cytometry via the FITC channel by analyzing GFP expression of individual cells. ZIKV infection was monitored utilizing Flavivirus group antigen–antibody (D1-4G2-4-15; Novus Biologicals, Littleton, CO, USA) staining for the ZIKV envelope protein. Cells were fixed and permeabilized using eBioscience Intracellular Fixation and Permeabilization Buffer (Invitrogen, Thermo Fisher Scientific, MA, USA) according to the manufacturer’s instructions. Secondary staining was performed using an anti-Alexa Fluor 488 (AF488) antibody (Invitrogen, Thermo Fisher Scientific, MA, USA). OC43 infection was monitored utilizing a primary antibody targeted toward the OC43 nucleocapsid protein (NP, MAB9013, Sigma-Aldrich, St. Louis, MO, USA). Secondary staining was performed using an AF488 antibody. Cells were fixed and permeabilized as previously described. LACV infection was monitored utilizing an anti-LACV Gc 807.31ab antibody kindly provided by Andrew Pekosv. Secondary staining was performed using an AF488 antibody. Cells were fixed and permeabilized as previously described.
To measure the effect of chalcone treatment on PIV5 virus growth, Hs27 cells were infected with PIV5-GFP. This engineered negative sense single-stranded RNA virus expresses GFP, which serves as a genome-encoded protein readout. After entering a cell, PIV5 must first undergo primary transcription to convert its genome into mRNA. As genome replication begins, nascent genomes then become templates for further conversion to mRNA and viral gene expression becomes amplified in a process called secondary transcription. For viral proteins to be detectable in cell culture, this amplification must first take place, making the expression of GFP a direct indicator of whether secondary transcription has successfully occurred. […] As shown in the representative data in Figure 4A, ~82% of DMSO-treated PIV5-GFP infected cells were positive for GFP expression. This was reduced to ~2% GFP-positive cells after treatment with 8o. […] These chalcones were therefore selected for further screening for cytotoxicity.
The GFP IC50 was defined as the concentration of chalcone required to inhibit the GFP expression (as measured via flow cytometry) by 50% when compared to DMSO-treated cells. […]

[2] = tested on: Hs27 cells; test: Propidium iodide (PI) staining cytotoxicity in Hs27 cells by flow cytometry; type: cell-based; settings: for PI MTC: 24 h, concentration giving 10% PI+ cells, Hs27 cells, standard curve; for PI+ cells: 10 µM, 24 h post-treatment, untreated control subtracted
Protocol: as §1, §2
To determine the actual cytotoxic effects of select chalcones in the series, human fibroblast Hs27 cells were treated with DMSO as a control or treated with each selected chalcone at a concentration of 10 µM. At 24 h post-treatment (hpt), the Hs27 cells were stained with propidium iodide (PI), a stain for cells with permeable plasma membranes, and then processed for flow cytometry (see Figure 4). […] These cytotoxicity findings reflected the relative growth-inhibition properties of 8f, 8l, 8o, 8p, 8s, 8w, 8x, and 8z observed in Table 2 (see Hs27 cell data).
The GFP IC50 was defined as the concentration of chalcone required to inhibit the GFP expression (as measured via flow cytometry) by 50% when compared to DMSO-treated cells. […] To determine these PI MTCs, Hs27 cells were treated with each chalcone at various concentrations for 24 h and then analyzed via flow cytometry for positive PI staining. Untreated controls were subtracted to account for background staining. […] Immediately following infection, media were replaced with chalcone-supplemented media at specified concentrations. GFP expression was analyzed via flow cytometry at 24 hpi.

[3] = low MOI (0.1 in Figure 7), read at 96 hpi

Structure (SMILES)	Inhibition of GFP expression, pre-infection treatment only ([1]; MOI 10, 24 hpi)	PI MTC [2] [µM]	Ability to reduce viral GFP expression (Figure 4B screen) ([1]; MOI 10, 24 hpi)	PI+ cells [2]	further results
COc1ccccc1/C=C/C(=O)c1ccccc1O [Chalcone 8a]	no significant inhibition of GFP expression	>15			GFP-positive cells regardless of time of addition ([1]; 10 µM added at 0, 6 or 18 hpi, MOI 10, read at 42 hpi): ~ 80%; Inhibition of viral gene expression, PIV5 ([1]; 10 µM, Hs27 cells): did not inhibit viral gene expression; GFP-positive cells with increasing concentration ([1]; 2.5, 5, 7.5 or 10 µM before and after infection, MOI 10, 24 hpi): ~ 80%; Effect on number of GFP-positive cells, virus spread, all times of addition ([1]; low MOI (0.1 in Figure 7), 10 µM added at 0, 24, 48 or 72 hpi, read at 96 hpi): modestly reduced
COc1ccc(Br)cc1/C=C/C(=O)c1c(O)cccc1OC [Chalcone 8f]		4.9	most notable performance	52.60% and 40–60%	
COc1ccc(Br)cc1/C=C/C(=O)c1c(O)cccc1OCc1ccccc1 [Chalcone 8l]		7.0	most notable performance	40–60% and 57.7%	
CCOc1ccc(Br)cc1/C=C/C(=O)c1c(O)cccc1OCc1ccccc1 [Chalcone 8o]	no significant inhibition of GFP expression	10.5	most notable performance	< 10% and 8.5%	GFP-positive cells, chalcone added at 0 or 6 hpi ([1]; MOI 10, read at 42 hpi): ~25%; Effect on number of GFP-positive cells, chalcone added at 18 hpi ([1]; MOI 10, read at 42 hpi): no significant effect; GFP-positive cells ([1]; MOI 10, 24 hpi): ~ 2% and 2.10% and < 10%; % GFP relative to DMSO treated (10 µM) ([1]; 10 µM): 14.6%; GFP-positive cells, virus spread, chalcone added at 0 and 24 hpi [1, 3]: less than 10%; Inhibition of virus spread, chalcone added at 48 and 72 hpi [1, 3]: inhibition was not seen
CCOc1ccc(Cl)cc1/C=C/C(=O)c1c(O)cccc1OCc1ccccc1 [Chalcone 8p]	no significant inhibition of GFP expression	8.4	most notable performance	< 10%	GFP-positive cells, chalcone added at 0 or 6 hpi ([1]; MOI 10, read at 42 hpi): ~25%; Effect on number of GFP-positive cells, chalcone added at 18 hpi ([1]; MOI 10, read at 42 hpi): no significant effect; GFP-positive cells ([1]; MOI 10, 24 hpi): < 10%; GFP-positive cells, virus spread, chalcone added at 0 and 24 hpi [1, 3]: less than 10%; Inhibition of virus spread, chalcone added at 48 and 72 hpi [1, 3]: inhibition was not seen
COc1ccc(Br)cc1/C=C/C(=O)c1c(O)cccc1OCCC(C)C [Chalcone 8s, (2E)-3-(5-Bromo-2-Methoxy-Phenyl)-1-[2-Hydroxy-6-(3-Methyl-Butoxy)-Phenyl]-Propenone]		3.5	most notable performance	40–60%	
CCOc1ccc(Br)cc1/C=C/C(=O)c1c(O)cccc1OCc1ccc(-c2ccccc2)cc1 [Chalcone 8v, (2E)-1-[2-(Biphenyl-4-Ylmethoxy)-6-Hydroxy-Phenyl]3-(5-Bromo-2-Ethoxy-Phenyl)-Propenone]					% GFP relative to DMSO treated (10 µM) ([1]; 10 µM): 63.3%
COc1ccc(Br)cc1/C=C/C(=O)c1c(O)cccc1OCc1ccc(-c2ccccc2)cc1 [Chalcone 8w, (2E)-1-[2-(Biphenyl-4-Ylmethoxy)-6-Hydroxy-Phenyl]3-(5-Bromo-2-Methoxy-Phenyl)-Propenone]		4.5	most notable performance	~ 11%	
COc1ccc(O)cc1/C=C/C(=O)c1c(O)cccc1OCc1ccccc1 [Chalcone 8x, (2E)-1-(2-Benzloxy-6-Hydroxy-Phenyl)-5-(5-Hydroxy-2-Methoxy-Phenyl)-Propenone]			most notable performance	40–60%	
COc1cc(/C=C/C(=O)c2c(O)cccc2OCc2ccccc2)cc(OC)c1OC [Chalcone 8z, (2E)-1-(2-Benzloxy-6-Hydroxy-Phenyl)-3-(3,4,5-Trimethoxy-Phenyl)-Propenone]		2.4	most notable performance	40–60%	
